Measured values reported in patent US20070117770A1, “Human ribosomal DNA (rDNA) and ribosomal RNA (rRNA) nucleic acids and uses thereof” (Cylene Pharmaceuticals, Inc., priority 2005, published 2007).

Columns and labels:
Experiment in all cases: Protein kinase inhibition assay
Type in all cases: biochemical
CDK9/cyclin T1(h) = CDK9/cyclin T1(h) (Homo sapiens, UniProt P50750); conditions: read-out: percent residual activity of CDK9/cyclin T1(h)
Summary of the method: (§1)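 Enzyme and substrate handling: every kinase enters as a 10× working dilution made in a buffer specific to that kinase, and substrates go in from working stocks, water-based except where a buffered stock (MOPS, Tris or HEPES, pH 7.0–7.5) is needed.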

EphA7(h) = EphA7(h) (Homo sapiens, UniProt Q15375); conditions: read-out: percent residual activity of EphA7(h)
Summary of the method: as §1

PKG1α(h) = PKG1α(h) (Homo sapiens, UniProt Q13976); conditions: read-out: percent residual activity of PKG1α(h)
Summary of the method: as §1

PTK5(h) = PTK5(h) (Homo sapiens, UniProt P42685); conditions: read-out: percent residual activity of PTK5(h)
Summary of the method: as §1

SAPK2a(T106M)(h) = SAPK2a(T106M)(h) (Homo sapiens, UniProt Q16539, T106M); conditions: read-out: percent residual activity of SAPK2a(T106M)(h)
Summary of the method: as §1

SRPK2(h) = SRPK2(h) (Homo sapiens, UniProt P78362); conditions: read-out: percent residual activity of SRPK2(h)
Summary of the method: as §1

EphB3(h) = EphB3(h) (Homo sapiens, UniProt P54753); conditions: read-out: percent residual activity of EphB3(h)
Description: (§2) Certain compounds were tested for activity in protein kinase inhibition assays. All substrates were dissolved and diluted to working stocks in de-ionized water, apart from histone H1 (10× working stock in 20 mM MOPS pH 7.0), PDKtide (10× working stock in 50 mM Tris pH 7.0) ATF2 (which is typically stored at a 20× working stock in 50 mM Tris pH 7.5, 150 mM NaCl, 0.1 mM EGTA, 0.03% Brij-35, 50% glycerol, 1 mM benzamidine, 0.2 mM PMSF and 0.1% R-mercaptoethanol), KKLNRTLSFAEPG (SEQ ID NO:203) and RRRLSFAEPG (SEQ ID NO:204) (50 mM HEPES pH 7.4) and GGEEEEYFELVKKKK (SEQ ID NO:205) (20 mM MOPS pH 7.0). All kinases were pre-diluted to a 10× working concentration prior to addition into the assay. The composition of the dilution buffer for each kinase is detailed below.
(§3) In a final reaction volume of 25 μl, EphB3 (h) (5-10 mU) is incubated with 8 mM MOPS pH 7.0, 0.2 mM EDTA, 10 mM MnCl2, 0.1 mg/ml poly (Glu, Tyr) 4:1, 10 mM MgAcetate and [gamma-33P-ATP] (specific activity approx. 500 cpm/pmol, concentration as required). The reaction is initiated by the addition of the MgATP mix. After incubation for 40 minutes at room temperature, the reaction is stopped by the addition of 5 μl of a 3% phosphoric acid solution. 10 μl of the reaction is then spotted onto a Filtermat A and washed three times for 5 minutes in 75 mM phosphoric acid and once in methanol prior to drying and scintillation counting.

FGFR4(h) = FGFR4(h) (Homo sapiens, UniProt P22455); conditions: read-out: percent residual activity of FGFR4(h)
Description: as §2
as §3, with “FGFR4” for “EphB3”, “poly(Glu,” for “poly (Glu,”

JNK1α1(h) = JNK1α1(h) (Homo sapiens, UniProt P45983); conditions: read-out: percent residual activity of JNK1α1(h)
Description: as §2
as §3, with “JNK1α” for “EphB3”, “50” for “8”, “Tris” for “MOPS”, “7.5, 0.1” for “7.0, 0.2”, “EGTA, 0.1% R-mercaptoethanol, 3 μM ATF2,” for “EDTA, 10 mM MnCl2, 0.1 mg/ml poly (Glu, Tyr) 4:1,”, “P30 filtermat” for “Filtermat A”

MAPKAP-K2(h) = MAPKAP-K2(h) (Homo sapiens, UniProt P49137); conditions: read-out: percent residual activity of MAPKAP-K2(h)
Description: as §2
In a final reaction volume of 25 μl, MAPKAP-K2 (h) (5-10 mU) is incubated with 50 mM Na R-glycerophosphate pH 7.5, 0.1 mM EGTA, 30 μM KKLNRTLSVA (SEQ ID NO:212), 10 mM MgAcetate and [gamma-33P-ATP] (specific activity approx. 500 cpm/pmol, concentration as required). The reaction is initiated by the addition of the MgATP mix. After incubation for 40 minutes at room temperature, the reaction is stopped by the addition of 5 μl of a 3% phosphoric acid solution. […]

MSK1(h) = MSK1(h) (Homo sapiens, UniProt O75582); conditions: read-out: percent residual activity of MSK1(h)
Description: as §2
as §3, with “MSK1” for “EphB3”, “30 μM GRPRTSSFAEGKK (SEQ ID NO:220),” for “10 mM MnCl2, 0.1 mg/ml poly (Glu, Tyr) 4:1,”, “P30 filtermat” for “Filtermat A”

PKG1α(h), sequence (Q13976 whole entry): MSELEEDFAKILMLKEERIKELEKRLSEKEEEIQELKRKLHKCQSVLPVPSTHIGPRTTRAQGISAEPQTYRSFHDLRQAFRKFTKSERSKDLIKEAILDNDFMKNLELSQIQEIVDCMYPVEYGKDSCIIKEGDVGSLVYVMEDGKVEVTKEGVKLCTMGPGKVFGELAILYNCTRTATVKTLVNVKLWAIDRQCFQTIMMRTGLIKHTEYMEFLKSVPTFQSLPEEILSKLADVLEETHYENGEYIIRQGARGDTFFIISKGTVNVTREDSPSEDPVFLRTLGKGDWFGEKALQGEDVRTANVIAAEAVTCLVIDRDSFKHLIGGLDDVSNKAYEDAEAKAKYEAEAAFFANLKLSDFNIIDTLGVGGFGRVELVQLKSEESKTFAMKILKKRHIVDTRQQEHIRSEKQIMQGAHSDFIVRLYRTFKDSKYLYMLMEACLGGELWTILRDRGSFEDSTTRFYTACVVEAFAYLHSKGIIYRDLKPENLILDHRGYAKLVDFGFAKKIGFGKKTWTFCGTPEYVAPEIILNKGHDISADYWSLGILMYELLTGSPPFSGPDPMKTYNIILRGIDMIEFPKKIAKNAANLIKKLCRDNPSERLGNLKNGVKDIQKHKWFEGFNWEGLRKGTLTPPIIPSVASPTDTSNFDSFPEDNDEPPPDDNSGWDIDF
JNK1α1(h), sequence (P45983 1-384 isoform P45983-2): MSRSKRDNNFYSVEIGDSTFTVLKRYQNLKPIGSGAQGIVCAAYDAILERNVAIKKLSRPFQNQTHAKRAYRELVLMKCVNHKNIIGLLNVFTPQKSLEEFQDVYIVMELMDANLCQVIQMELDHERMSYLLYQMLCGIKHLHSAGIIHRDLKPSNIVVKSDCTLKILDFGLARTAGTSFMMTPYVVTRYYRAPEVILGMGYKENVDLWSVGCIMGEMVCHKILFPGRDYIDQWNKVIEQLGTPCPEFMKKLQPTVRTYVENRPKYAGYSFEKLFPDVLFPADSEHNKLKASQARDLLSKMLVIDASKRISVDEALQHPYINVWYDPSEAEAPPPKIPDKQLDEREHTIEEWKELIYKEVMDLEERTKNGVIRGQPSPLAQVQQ
FGFR4(h), sequence (P22455 22-802): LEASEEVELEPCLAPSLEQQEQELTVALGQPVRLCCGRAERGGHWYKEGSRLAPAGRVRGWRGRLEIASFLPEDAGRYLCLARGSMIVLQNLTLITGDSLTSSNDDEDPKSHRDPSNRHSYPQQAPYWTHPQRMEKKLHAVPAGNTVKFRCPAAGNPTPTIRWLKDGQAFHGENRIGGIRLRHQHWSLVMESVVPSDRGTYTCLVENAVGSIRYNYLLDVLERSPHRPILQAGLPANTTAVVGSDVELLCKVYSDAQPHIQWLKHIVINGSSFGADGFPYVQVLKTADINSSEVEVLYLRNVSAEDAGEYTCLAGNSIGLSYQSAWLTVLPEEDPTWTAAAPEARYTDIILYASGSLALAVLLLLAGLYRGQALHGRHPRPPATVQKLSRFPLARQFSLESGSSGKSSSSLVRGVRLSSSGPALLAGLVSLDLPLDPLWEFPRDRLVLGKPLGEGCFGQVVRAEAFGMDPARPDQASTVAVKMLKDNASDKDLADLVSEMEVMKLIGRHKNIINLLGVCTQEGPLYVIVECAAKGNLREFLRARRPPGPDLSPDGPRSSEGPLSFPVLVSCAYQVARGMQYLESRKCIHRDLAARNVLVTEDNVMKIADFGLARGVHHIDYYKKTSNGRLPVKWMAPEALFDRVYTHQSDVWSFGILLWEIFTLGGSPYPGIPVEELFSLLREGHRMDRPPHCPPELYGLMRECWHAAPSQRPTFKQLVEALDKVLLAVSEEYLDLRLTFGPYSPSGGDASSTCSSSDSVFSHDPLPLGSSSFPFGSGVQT
MAPKAP-K2(h), sequence (P49137 whole entry): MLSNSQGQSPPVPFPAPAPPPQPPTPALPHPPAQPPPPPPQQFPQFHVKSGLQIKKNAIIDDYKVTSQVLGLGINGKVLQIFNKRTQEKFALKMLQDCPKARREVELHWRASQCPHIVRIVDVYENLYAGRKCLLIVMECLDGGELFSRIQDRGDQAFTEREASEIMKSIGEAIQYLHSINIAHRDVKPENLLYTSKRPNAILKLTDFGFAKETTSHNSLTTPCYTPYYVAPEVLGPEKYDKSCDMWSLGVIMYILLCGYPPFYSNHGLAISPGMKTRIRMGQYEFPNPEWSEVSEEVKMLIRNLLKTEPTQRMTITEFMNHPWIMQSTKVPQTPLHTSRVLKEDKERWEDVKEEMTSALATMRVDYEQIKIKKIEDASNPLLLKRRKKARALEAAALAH
SRPK2(h), sequence (P78362 whole entry): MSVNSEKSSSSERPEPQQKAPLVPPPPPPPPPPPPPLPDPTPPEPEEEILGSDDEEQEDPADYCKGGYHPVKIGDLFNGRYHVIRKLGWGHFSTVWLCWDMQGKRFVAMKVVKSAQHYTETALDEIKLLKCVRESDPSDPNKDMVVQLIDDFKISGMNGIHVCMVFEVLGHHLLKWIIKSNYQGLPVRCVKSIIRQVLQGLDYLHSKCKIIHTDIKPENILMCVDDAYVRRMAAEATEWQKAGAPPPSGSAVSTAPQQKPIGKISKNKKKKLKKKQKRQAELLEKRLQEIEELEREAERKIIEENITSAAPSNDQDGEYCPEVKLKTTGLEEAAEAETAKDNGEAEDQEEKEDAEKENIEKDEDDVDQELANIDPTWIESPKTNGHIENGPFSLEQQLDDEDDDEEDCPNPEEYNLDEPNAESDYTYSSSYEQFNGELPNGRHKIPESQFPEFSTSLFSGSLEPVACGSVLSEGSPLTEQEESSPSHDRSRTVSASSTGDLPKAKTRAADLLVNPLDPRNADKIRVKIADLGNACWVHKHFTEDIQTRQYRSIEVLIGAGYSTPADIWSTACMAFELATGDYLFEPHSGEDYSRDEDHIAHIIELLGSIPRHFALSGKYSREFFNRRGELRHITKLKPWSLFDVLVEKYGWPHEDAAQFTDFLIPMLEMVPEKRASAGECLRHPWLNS
CDK9/cyclin T1(h), sequence (P50750 whole entry): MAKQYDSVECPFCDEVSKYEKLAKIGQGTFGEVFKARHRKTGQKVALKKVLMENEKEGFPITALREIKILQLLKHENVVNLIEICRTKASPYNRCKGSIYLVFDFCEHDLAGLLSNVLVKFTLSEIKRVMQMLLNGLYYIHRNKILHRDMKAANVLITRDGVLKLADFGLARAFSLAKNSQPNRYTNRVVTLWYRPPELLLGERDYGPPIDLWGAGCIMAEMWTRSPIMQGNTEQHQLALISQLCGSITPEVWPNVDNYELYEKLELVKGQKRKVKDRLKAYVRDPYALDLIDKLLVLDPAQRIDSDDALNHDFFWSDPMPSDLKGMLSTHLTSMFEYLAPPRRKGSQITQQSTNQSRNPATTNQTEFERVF
CDK9/cyclin T1(h), sequence (O60563 whole entry partner): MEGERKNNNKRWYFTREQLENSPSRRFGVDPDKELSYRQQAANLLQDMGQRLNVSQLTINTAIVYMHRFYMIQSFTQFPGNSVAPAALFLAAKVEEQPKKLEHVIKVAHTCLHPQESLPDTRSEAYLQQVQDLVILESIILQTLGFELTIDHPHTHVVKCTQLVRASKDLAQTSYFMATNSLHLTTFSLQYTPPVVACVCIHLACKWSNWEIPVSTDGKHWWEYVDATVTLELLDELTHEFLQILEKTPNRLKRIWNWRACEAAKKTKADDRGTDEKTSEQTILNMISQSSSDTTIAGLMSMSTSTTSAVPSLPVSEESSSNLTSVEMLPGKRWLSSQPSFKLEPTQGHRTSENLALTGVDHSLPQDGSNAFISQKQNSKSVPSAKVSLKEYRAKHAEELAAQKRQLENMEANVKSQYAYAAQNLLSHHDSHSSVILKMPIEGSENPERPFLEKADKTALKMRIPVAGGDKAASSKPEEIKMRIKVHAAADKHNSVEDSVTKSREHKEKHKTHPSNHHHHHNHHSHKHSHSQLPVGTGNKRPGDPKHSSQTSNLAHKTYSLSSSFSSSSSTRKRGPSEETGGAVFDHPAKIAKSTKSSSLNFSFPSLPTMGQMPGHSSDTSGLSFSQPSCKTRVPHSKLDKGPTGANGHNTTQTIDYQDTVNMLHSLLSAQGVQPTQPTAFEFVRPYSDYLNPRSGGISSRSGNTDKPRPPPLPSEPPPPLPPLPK
EphA7(h), sequence (Q15375 28-998): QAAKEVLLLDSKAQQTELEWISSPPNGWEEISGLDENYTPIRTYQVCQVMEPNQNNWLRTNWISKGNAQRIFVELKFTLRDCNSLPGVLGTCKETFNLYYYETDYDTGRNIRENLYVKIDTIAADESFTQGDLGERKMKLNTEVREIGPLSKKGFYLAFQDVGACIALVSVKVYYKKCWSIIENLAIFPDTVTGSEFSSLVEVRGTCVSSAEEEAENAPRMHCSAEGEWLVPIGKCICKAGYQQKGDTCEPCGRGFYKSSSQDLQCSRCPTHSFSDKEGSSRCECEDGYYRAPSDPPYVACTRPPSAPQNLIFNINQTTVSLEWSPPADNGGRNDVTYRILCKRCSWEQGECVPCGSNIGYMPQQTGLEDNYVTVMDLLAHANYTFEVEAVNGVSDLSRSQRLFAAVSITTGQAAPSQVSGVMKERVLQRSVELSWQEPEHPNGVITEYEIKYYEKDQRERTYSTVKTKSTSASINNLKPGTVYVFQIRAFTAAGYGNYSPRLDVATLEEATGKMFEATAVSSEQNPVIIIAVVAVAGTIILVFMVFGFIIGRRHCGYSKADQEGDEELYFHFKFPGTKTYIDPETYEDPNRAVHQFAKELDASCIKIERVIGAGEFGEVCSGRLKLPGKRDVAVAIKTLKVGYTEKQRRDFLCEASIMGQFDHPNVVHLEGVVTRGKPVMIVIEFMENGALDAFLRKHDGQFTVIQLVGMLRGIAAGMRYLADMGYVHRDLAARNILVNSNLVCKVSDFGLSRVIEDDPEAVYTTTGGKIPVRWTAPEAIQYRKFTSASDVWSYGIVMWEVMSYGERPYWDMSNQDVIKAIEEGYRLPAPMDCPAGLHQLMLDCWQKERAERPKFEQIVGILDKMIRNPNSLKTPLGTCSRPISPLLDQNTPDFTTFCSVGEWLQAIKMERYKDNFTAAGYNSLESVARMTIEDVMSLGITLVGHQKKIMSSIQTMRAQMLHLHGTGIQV

Row | Compound | remaining activity at 2.5 µM (CDK9/cyclin T1(h)) [%] | remaining activity at 2.5 µM (EphA7(h)) [%] | remaining activity at 2.5 µM (PKG1α(h)) [%] | remaining activity at 2.5 µM (PTK5(h)) [%] | remaining activity at 2.5 µM (SAPK2a(T106M)(h)) [%] | remaining activity at 2.5 µM (SRPK2(h)) [%] | remaining activity at 2.5 µM (EphB3(h)) [%] | remaining activity at 2.5 µM (FGFR4(h)) [%] | remaining activity at 2.5 µM (JNK1α1(h)) [%] | remaining activity at 2.5 µM (MAPKAP-K2(h)) [%] | remaining activity at 2.5 µM (MSK1(h)) [%]
1 | CN1CCCC1CCNC(=O)c1cn2c3c(c(N4CCC(c5cnccn5)C4)c(F)cc3c1=O)Oc1cc3ccccc3cc1-2 (stereo not shown) [Compound A-1] | 116 | 109 | 57 | 116 | 94 | 88 | 111 | 112 | 94 | 79 | 61
2 | CC(=O)N1CCN(c2ccc3c(=O)c(C(=O)NCCN4CCCC4)c4n(C)c5ccccc5n4c3n2)CC1 [Compound B-1] | 100 | 100 | 101 | 107 | 99 | 88 | 115 | 104 | 100 | 99 | 99
